According to patent publication US20250281474A1, “PHARMACEUTICAL COMPOSITION FOR TREATING COGNITIVE DECLINE OR FOR TREATING OVERWEIGHTNESS OR OBESITY” (University of the Ryukyus, priority 2021, published 2025):

How the values were obtained:
[1] = system: HFD mice; assay: Golgi staining of hippocampus, HFD mice; assay type: in vivo, mouse; conditions: HFD mice with PER
Description: Coronal sections of mouse brains from Bregma −0.94 mm to Bregma −4.04 mm (5 mm wide, including the entire hippocampus from dorsal to ventral, medial to lateral) were fixed with 4% paraformaldehyde for 2 days, and then stained with the Golgi Cox staining system (FD Rapid GolgiStain™ Kit, MD 21041, USA). The impregnated tissues were cut into 100 μm sections and counterstained with crystal violet, and the total number of 15 μm spines on the apical dendrites of CA1 and DG and the percentage of morphologic spines (thin, stubby, mushroom) were examined using an Axio Observer Z1 (Carl Zeiss, Germany). Another set of paraformaldehyde-fixed 5 mm wide coronal sections of the brain, including the entire hippocampus, were processed using the passive CLARITY technique (PACT) (62) and examined through Lightsheet Z.1 (Carl Zeiss, Germany) using a 10× clear objective lens, and 3D images of Thy1-YFPH transgenic mice (the Jackson Laboratory, stock number: 003709, strain name: B6.Cg-Tg.(Thy1-YFP)16Jrs/J) (63, 64), HFD-fed mice, and whole hippocampus of the HFD-fed mice with PER treatment. were acquired respectively. Maximum intensity projection images were acquired along the Z dimension, time dimension, and channel dimension to create an output image with the pixel containing the maximum value for all images in the stack at a particular pixel position. […]

[2] = system: AMPAR (CP-AMPAR); assay: Ca2+ imaging of hippocampal brain slices, AMPA+CTZ application (CP-AMPA reaction), HFD-fed mice; assay type: cell-based; conditions: slices of HFD-fed mice given PER 5 mg/kg/day orally, 100 μM AMPA + 100 μM CTZ, N=5
Description: First, the intracellular calcium concentration ([Ca^2+]i) was directly measured in an acute brain slice of the hippocampus having a perihippocampal region using a mouse obesity model associated with HFD feeding (composition of diet (7) shown in Table 1) for 12 weeks after weaning to track calcium signaling (FIG. 1A: supplementary data moving image 1) in the hippocampus. HFD-fed mice received […] containing 100 μM CTZ (cyclothiazide; […]) applied to EC (entorhinal cortex), CA1 (cornu ammonis 1), CA2, CA3, and DG (dentate gyrus). The F525 normalized before and after application was compared.

N#Cc1ccccc1-c1cc(-c2ccccn2)cn(-c2ccccc2)c1=O [PER, 3-(2-cyanophenyl)-5-(2-pyridyl)-1-phenyl-1,2-dihydropyridine-2-one]
spine maturity in DG [1]: immature spines became mature | CP-AMPA reaction CA1 (maximum value of NF525) ([2]; CA1): 1.00 ± 0.01 (N = 5) | CP-AMPA reaction CA2 (maximum value of NF525) ([2]; CA2): 1.00 ± 0.02 (N = 5) | CP-AMPA reaction CA3 (maximum value of NF525) ([2]; CA3): 1.00 ± 0.01 (N = 5) | CP-AMPA reaction DG (maximum value of NF525) ([2]; DG): 1.02 ± 0.01 (N = 5) | CP-AMPA reaction EC (maximum value of NF525) ([2]; EC): 1.05 ± 0.05 (N = 5)
